Assay results taken from patent US20230134922A1, “TOPICAL DELIVERY OF BUFFERING AGENTS FOR PREVENTION AND TREATMENT OF VIRAL INFECTIONS” (Dyve Biosciences, Inc., priority 2020, published 2023).

What was measured:
MCF-7 cells = assay: Doxorubicin uptake and cytotoxicity at medium pH 6.8 or 7.4; type: cell-based; conditions: raising the pHe from 6.8 to 7.4
Experimental: Twenty-four hours later, regular growth medium was replaced, and cells allowed to grow a subsequent 72 h, after which time they were fixed and stained with crystal violet for determination of cell number.

MCF-7 tumors = assay: MCF-7 tumor growth in SCID mice, doxorubicin with oral or topical bicarbonate; type: in vivo
Experimental: The start of the bicarbonate treatment was designated as day 1.
Tumor volumes and animal weights were monitored every 2 days. […] Other characteristics of tumors that increase its potential for carcinogenesis other than growth rates are measured by other parameters as well, including inhibition metastasis.

doxorubicin
enhancement of cytotoxicity (MCF-7 cells): 2.25 fold | increase in intracellular doxorubicin concentrations (MCF-7 cells): 2.56 fold | decrease of tumor growth rate (MCF-7 tumors; Group B, 1.6 mg/kg i.p. days 3, 7, 11, doxorubicin alone): ~30% | reduction in tumor growth rate (MCF-7 tumors; Group D, doxorubicin i.p. with 200 mM sodium bicarbonate drinking water): 55% | reduction in tumor growth rate (MCF-7 tumors; Group F, doxorubicin i.p. with topical bicarbonate formulation 150 μL/day): significantly lowered tumor growth rate | reduction in tumor growth rate (MCF-7 tumors; Group F, doxorubicin i.p. with topical bicarbonate formulation 150 μL/day, listed as Doxorubicin): 55%
